Laboratory results from patent US7314958B2, “Phenylbenzamides” (Bayer CropScience AG, priority 2002, dated 2008).
Blank lines part the entries; values can stand above or below the molecule they belong to.

How the values were obtained:
[1] = logP determination by HPLC, reversed-phase column (C 18), acidic range; type: physicochemical; conditions: pH 2.3, 0.1% aqueous phosphoric acid/acetonitrile, 43° C.
Method: The logP values given in the Preparation Examples were determined in accordance with EEC Directive 79/831 Annex V.A8 by HPLC (High Performance Liquid Chromatography) using a reversed-phase column (C 18). Temperature: 43° C. Mobile phases for the determination in the acidic range: 0.1% aqueous phosphoric acid, acetonitrile; linear gradient from 10% acetonitrile to 90% acetonitrile. Calibration was carried out using unbranched alkan-2-ones (having 3 to 16 carbon atoms) with known logP values (determination of the logP values by the retention times using linear interpolation between two successive […]).

Sphaerotheca fuliginea [2] = experiment: Sphaerotheca test (cucumber)/protective; type: in vivo; conditions: Podosphaera fuliginea, 168 h; comparative experiment; application rate 500 ppm; read-out: Example A Spaerotheca test (cucumber) protective efficacy in %
Method: Sphaerotheca Test (Cucumber)/Protective
• Solvents: 24.5 parts by weight of acetone 24.5 parts by weight of dimethylacetamide • Emulsifier: 1 part by weight of alkylaryl polyglycol ether
(§1) To produce a suitable preparation of active compound, 1 part by weight of active compound is mixed with the stated amounts of solvent and emulsifier, and the concentrate is diluted with water to the desired concentration.
To test for protective activity, young plants are sprayed with the preparation of active compound at the stated application rate. After the spray coating has dried on, the plants are inoculated with an aqueous spore suspension of Sphaerotheca fuliginea. The plants are then placed in a greenhouse at about 23° C. and a relative atmospheric humidity of about 70%.
Evaluation is carried out 7 days after the inoculation. 0% means an efficacy which corresponds to that of the control, whereas an efficacy of 100% means that no infection is observed.
The compounds were tested in comparative experiments according to use examples A [Spaerotheca test (cucumber)/protective], D [Alternaria test (tomato)/protective] and E [Erysiphe test (barley)/protective].
In each case, the application rate was 500 ppm.

Alternaria solani = experiment: Alternaria test (tomato)/protective; type: in vivo; conditions: 168 h, comparative experiment, application rate 500 ppm, read-out: Example D Alternaria test (tomato) protective efficacy in %
Method: Alternaria Test (Tomato)/Protective • Solvent: 49 parts by weight of N,N-dimethylformamide • Emulsifier: 1 part by weight of alkylaryl polyglycol ether To produce a suitable preparation of active compound, 1 part by weight of active compound is mixed with the stated amounts of solvent and emulsifier, and the concentrate is diluted with water to the desired concentration. To test for protective activity, young tomato plants are sprayed with the preparation of active compound at the stated application rate. 1 day after the treatment, the plants are inoculated with an aqueous spore suspension of Alternaria solani and then remain at 100% relative atmospheric humidity for 24 hours. The plants are then kept at about 96% relative atmospheric humidity and a temperature of 20° C. Evaluation is carried out 7 days after the inoculation. 0% means an efficacy which corresponds to that of the control, whereas an efficacy of 100% means that no infection is observed. The compounds were tested in comparative experiments according to use examples A [Spaerotheca test (cucumber)/protective], D [Alternaria test (tomato)/protective] and E [Erysiphe test (barley)/protective]. In each case, the application rate was 500 ppm.

[3] = test system: Erysiphe graminis f. sp. hordei; experiment: Erysiphe test (barley)/protective; type: in vivo; conditions: Blumeria graminis, 168 h; comparative experiment; application rate 500 ppm; read-out: Example E Erysiphe test (barley) protective efficacy in %
Method: Erysiphe Test (Barley)/Protective • Solvent: 49 parts by weight of N,N-dimethylformamide • Emulsifier: 1 part by weight of alkylaryl polyglycol ether To produce a suitable preparation of active compound, 1 part by weight of active compound is mixed with the stated amounts of solvent and emulsifier, and the concentrate is diluted with water to the desired concentration. To test for protective activity, young cereal plants are sprayed with the preparation of active compound at the stated application rate. 1 day after the treatment, the plants are inoculated with spores of Erysiphe graminis f. sp. hordei. The plants are then placed in a greenhouse at 70% relative atmospheric humidity and a temperature of 18° C. Evaluation is carried out 7 days after the inoculation. 0% means an efficacy which corresponds to that of the control, whereas an efficacy of 100% means that no infection is observed. The compounds were tested in comparative experiments according to use examples A [Spaerotheca test (cucumber)/protective], D [Alternaria test (tomato)/protective] and E [Erysiphe test (barley)/protective]. In each case, the application rate was 500 ppm.

Sphaerotheca fuliginea [4] = experiment: Sphaerotheca test (cucumber)/protective; type: in vivo; conditions: protective, application rate 100 g/ha, evaluation 7 days after inoculation
Venturia inaequalis = experiment: Venturia test (apple)/protective; type: in vivo; conditions: protective, application rate 100 g/ha, evaluation 10 days after inoculation
Method: Venturia Test (Apple)/Protective
• Solvents: 24.5 parts by weight of acetone 24.5 parts by weight of dimethylacetamide • Emulsifier: 1.0 part by weight of alkylaryl polyglycol ether
as §1
To test for protective activity, young plants are sprayed with the preparation of active compound at the stated application rate. After the spray coating has dried on, the plants are inoculated with an aqueous conidia suspension of the apple scab pathogen Venturia inaequalis and then remain in an incubation cabin at about 20° C. and 100% relative atmospheric humidity for 1 day.
The plants are then placed in a greenhouse at about 21° C. and a relative atmospheric humidity of about 90%.
Evaluation is carried out 10 days after the inoculation. 0% means an efficacy which corresponds to that of the control, whilst an efficacy of 100% means that no infection is observed.

Botrytis cinerea = experiment: Botrytis test (bean)/protective; type: in vivo; conditions: protective, application rate 500 g/ha, evaluation 2 days after inoculation
Method: Botrytis Test (Bean)/Protective • Solvent: 49 parts by weight of N,N-dimethylformamide • Emulsifier: 1 part by weight of alkylaryl polyglycol ether To produce a suitable preparation of active compound, 1 part by weight of active compound is mixed with the stated amounts of solvent and emulsifier, and the concentrate is diluted with water to the desired concentration. To test for protective activity, young plants are sprayed with the preparation of active compound at the stated application rate. After the spray coating has dried on, 2 small pieces of agar colonized by Botrytis cinerea are placed onto each leaf. The inoculated plants are placed in a dark chamber at about 20° C. and 100% relative atmospheric humidity. 2 days after the inoculation, the size of the infected areas on the leaves is evaluated. 0% means an efficacy which corresponds to that of the control, whereas an efficacy of 100% means that no infection is observed.

Puccinia recondita = experiment: Puccinia test (wheat)/protective; type: in vivo; conditions: 240 h, protective, application rate 500 g/ha, evaluation 10 days after inoculation, read-out: Efficacy in %
Method: Puccinia Test (Wheat)/Protective • Solvent: 25 parts by weight of N,N-dimethylacetamide • Emulsifier: 0.6 part by weight of alkylaryl polyglycol ether To produce a suitable preparation of active compound, 1 part by weight of active compound is mixed with the stated amounts of solvent and emulsifier, and the concentrate is diluted with water to the desired concentration. To test for protective activity, young plants are inoculated with a spore suspension of Puccinia recondita in a 0.1% strength aqueous agar solution. After the spray coating has dried on, the plants are sprayed with the preparation of active compound at the stated application rate. The plants remain in an incubation cabin at 20° C. and 100% relative atmospheric humidity for 24 hours. The plants are then placed in a greenhouse at a temperature of about 20° C. and a relative atmospheric humidity of 80% to promote the development of rust pustules. Evaluation is carried out 10 days after the inoculation. 0% means an efficacy which corresponds to that of the control, whereas an efficacy of 100% means that no infection is observed.

chromatographic logP [1]: 4.09
SMILES: CC(C)CC(C)c1ccccc1NC(=O)c1ccccc1C(F)(F)F (centres unmarked) [Example 2, N-[2-(1,3-dimethylbutyl)phenyl]-2-(trifluoromethyl)benzamide]
pest or weed control at 500 ppm (Sphaerotheca fuliginea [2]): 100%
pest or weed control at 500 ppm (Alternaria solani): 95%
pest or weed control at 500 ppm [3]: 90%

chromatographic logP [1]: 4.12
SMILES: CC(C)CC(C)c1ccccc1NC(=O)c1ccccc1I (centres unmarked) [Example 3, N-[2-(1,3-dimethylbutyl)phenyl]-2-iodobenzamide]
pest or weed control at 500 ppm (Sphaerotheca fuliginea [2]): 100%
pest or weed control at 500 ppm (Alternaria solani): 95%
pest or weed control at 500 ppm [3]: 95%

chromatographic logP [1]: 3.98
SMILES: CC(C)CC(C)c1ccccc1NC(=O)c1ccccc1Cl (centres unmarked) [Example 4, N-[2-(1,3-dimethylbutyl)phenyl]-2-chlorobenzamide]

chromatographic logP [1]: 4.01
SMILES: CC(C)CC(C)c1ccccc1NC(=O)c1ccccc1Br (centres unmarked) [Example 5, N-[2-(1,3-dimethylbutyl)phenyl]-2-bromobenzamide]
pest or weed control at 500 ppm (Sphaerotheca fuliginea [2]): 95%
pest or weed control at 500 ppm (Alternaria solani): 90%
pest or weed control at 500 ppm [3]: 30%

chromatographic logP [1]: 4.36
SMILES: CC(CC(C)(C)C)c1ccccc1NC(=O)c1ccccc1C(F)(F)F (centres unmarked) [Example 6, 2-(trifluoromethyl)-N-[2-(1,3,3-trimethylbutyl)phenyl]benzamide]

chromatographic logP [1]: 4.25
SMILES: CC(CC(C)(C)C)c1ccccc1NC(=O)c1ccccc1Cl (centres unmarked) [Example 7, 2-chloro-N-[2-(1,3,3-trimethylbutyl)phenyl]benzamide]

chromatographic logP [1]: 4.29
SMILES: CC(CC(C)(C)C)c1ccccc1NC(=O)c1ccccc1Br (centres unmarked) [Example 8, 2-bromo-N-[2-(1,3,3-trimethylbutyl)phenyl]benzamide]

chromatographic logP [1]: 4.4
SMILES: CC(CC(C)(C)C)c1ccccc1NC(=O)c1ccccc1I (centres unmarked) [Example 9, 2-iodo-N-[2-(1,3,3-trimethylbutyl)phenyl]benzamide]

chromatographic logP [1]: 4.71
SMILES: CCC(C)(C)CC(C)c1ccccc1NC(=O)c1ccccc1I (centres unmarked) [Example 10, (2-iodophenyl)-N-[2-(1,3,3-trimethylpentyl)phenyl]carboxamide]

chromatographic logP [1]: 4.68
SMILES: CCC(C)(C)CC(C)c1ccccc1NC(=O)c1ccccc1C(F)(F)F (centres unmarked) [Example 11, [2-(trifluoromethyl)phenyl]-N-[2-(1,3,3-trimethylpentyl)phenyl]carboxamide]

chromatographic logP [1]: 4.6
SMILES: CCC(C)(C)CC(C)c1ccccc1NC(=O)c1ccccc1Cl (centres unmarked) [Example 12, (2-chlorophenyl)-N-[2-(1,3,3-trimethylpentyl)phenyl]carboxamide]

chromatographic logP [1]: 4.63
SMILES: CCC(C)(C)CC(C)c1ccccc1NC(=O)c1ccccc1Br (centres unmarked) [Example 13, (2-bromophenyl)-N-[2-(1,3,3-trimethylpentyl)phenyl]carboxamide]

SMILES: CCCCc1ccccc1NC(=O)c1ccccc1I [No.14.3(p. 42)]
pest or weed control at 500 ppm (Sphaerotheca fuliginea [2]): 0%
pest or weed control at 500 ppm (Alternaria solani): 0%
pest or weed control at 500 ppm [3]: 0%

SMILES: CCC(C)c1ccccc1NC(=O)c1ccccc1I (centres unmarked) [No.14.4(p. 42)]
pest or weed control at 500 ppm (Sphaerotheca fuliginea [2]): 10%
pest or weed control at 500 ppm (Alternaria solani): 10%
pest or weed control at 500 ppm [3]: 20%

SMILES: CCCCCCc1ccccc1NC(=O)c1ccccc1I [No.14.9(p. 42)]
pest or weed control at 500 ppm (Sphaerotheca fuliginea [2]): 0%
pest or weed control at 500 ppm (Alternaria solani): 0%
pest or weed control at 500 ppm [3]: 0%

SMILES: CCCCc1ccccc1NC(=O)c1ccccc1C(F)(F)F [No. 6.3(p. 24)]
pest or weed control at 500 ppm (Sphaerotheca fuliginea [2]): 10%
pest or weed control at 500 ppm (Alternaria solani): 0%
pest or weed control at 500 ppm [3]: 10%

SMILES: CCC(C)c1ccccc1NC(=O)c1ccccc1C(F)(F)F (centres unmarked) [No. 6.4(p. 24)]
pest or weed control at 500 ppm (Sphaerotheca fuliginea [2]): 30%
pest or weed control at 500 ppm (Alternaria solani): 30%
pest or weed control at 500 ppm [3]: 0%

SMILES: CCCCCCc1ccccc1NC(=O)c1ccccc1C(F)(F)F [No. 6.9(p. 24)]
pest or weed control at 500 ppm (Sphaerotheca fuliginea [2]): 0%
pest or weed control at 500 ppm (Alternaria solani): 0%
pest or weed control at 500 ppm [3]: 0%

SMILES: CC(C)CC(C)c1ccccc1NC(=O)c1ccccc1C(F)(F)F (centres unmarked) [drawing 10]
Efficacy in % (Sphaerotheca fuliginea [4]): 100%

SMILES: CC(C)CC(C)c1ccccc1NC(=O)c1ccccc1I (centres unmarked) [drawing 11]
Efficacy in % (Sphaerotheca fuliginea [4]): 100%

SMILES: CC(C)CC(C)c1ccccc1NC(=O)c1ccccc1C(F)(F)F (centres unmarked) [drawing 12]
Efficacy in % (Venturia inaequalis): 100%

SMILES: CC(C)CC(C)c1ccccc1NC(=O)c1ccccc1I (centres unmarked) [drawing 13]
Efficacy in % (Venturia inaequalis): 100%

SMILES: CC(C)CC(C)c1ccccc1NC(=O)c1ccccc1C(F)(F)F (centres unmarked) [drawing 14]
Efficacy in % (Botrytis cinerea): 93%

SMILES: CC(C)CC(C)c1ccccc1NC(=O)c1ccccc1C(F)(F)F (centres unmarked) [drawing 20]
pest or weed control at 500 g/ha (Puccinia recondita): 100%

SMILES: CC(C)CC(C)c1ccccc1NC(=O)c1ccccc1I (centres unmarked) [drawing 21]
pest or weed control at 500 g/ha (Puccinia recondita): 100%

SMILES: CC(C)CC(C)c1ccccc1NC(=O)c1ccccc1Br (centres unmarked) [drawing 22]
pest or weed control at 500 g/ha (Puccinia recondita): 100%

SMILES: CC(C)CC(C)c1ccccc1NC(=O)c1ccccc1Cl (centres unmarked) [drawing 23]
pest or weed control at 500 g/ha (Puccinia recondita): 100%

SMILES: CC(CC(C)(C)C)c1ccccc1NC(=O)c1ccccc1Br (centres unmarked) [drawing 24]
pest or weed control at 500 g/ha (Puccinia recondita): 100%

SMILES: CC(CC(C)(C)C)c1ccccc1NC(=O)c1ccccc1Cl (centres unmarked) [drawing 25]
pest or weed control at 500 g/ha (Puccinia recondita): 100%

SMILES: CCC(C)(C)CC(C)c1ccccc1NC(=O)c1ccccc1C(F)(F)F (centres unmarked) [drawing 26]
pest or weed control at 500 g/ha (Puccinia recondita): 100%

SMILES: CC(CC(C)(C)C)c1ccccc1NC(=O)c1ccccc1C(F)(F)F (centres unmarked) [drawing 27]
pest or weed control at 500 g/ha (Puccinia recondita): 100%

SMILES: CC(CC(C)(C)C)c1ccccc1NC(=O)c1ccccc1I (centres unmarked) [drawing 28]
pest or weed control at 500 g/ha (Puccinia recondita): 100%
